The subject of one assay is KB. The assay is described as follows: Cytotoxicity against human KB cells. The assay is classed as functional, cell-based.
The next assay has as its system A10. The assay is described as follows: Induction of microtubule loss in rat A10 cells at 1 ng/mL. The assay is classed as functional.

The structures appear in SMILES notation. ≈ marks a conversion by molar mass, not a printed value. A value given as a limit tells only on which side of the number the result lay.

Usually IC50 stands for the concentration that inhibits the measured activity by half. Higher therefore signals weaker potency in that assay.

`CC[C@H](C)[C@@H]([C@@H](CC(=O)N1CCC[C@H]1[C@H](OC)[C@@H](C)C(=O)N[C@@H](Cc1ccccc1)c1nccs1)OC)N(C)C(=O)[C@@H](NC(=O)[C@H]([C@@H](C)CC)N(C)C)C(C)C` [SYMPLOSTATIN 1] showed a concentration for half-maximal inhibition (IC50) in the assay on KB of 0.3 ng/mL (≈ 0.375 nM). This molecule also had an Activity with A10 of 80%.
Molecule `CC[C@H](C)[C@@H]([C@@H](CC(=O)N1CCC[C@H]1[C@H](OC)[C@@H](C)C(=O)N[C@@H](Cc1ccccc1)c1nccs1)OC)N(C)C(=O)[C@@H](NC(=O)[C@H](C(C)C)N(C)C)C(C)C` [DOLASTATIN-10] displayed a 50% inhibitory concentration (IC50) in the assay on KB below 0.1 ng/mL.

Values taken from ChEMBL document CHEMBL1150939, “Symplostatin 1: A dolastatin 10 analogue from the marine cyanobacterium Symploca hydnoides” (J Nat Prod, 1998).
